Columns and labels:
Type in all cases: physicochemical
[1] = Karl Fisher moisture determination; conditions: Karl Fisher potentiometric titration; powder in formamide; 0.6 % RSD
Protocol: Moisture content in methotrexate powder was measured by Karl Fisher potentiometric titration by direct injection using a Mitsubishi model CA-06 moisturemeter (Mitsubishi Kasei Corporation, Japan). The powder was dissolved/dispersed in 2.5 mL formamide and 1 mL of the solution was injected […]. Titration checks were made by injecting water standards, Mitsubishi (catalogue number MC02020), at several time intervals.

[2] = Dynamic vapor sorption (DVS) study; conditions: 25° C.
Protocol: Water sorption/desorption studies were conducted on a DVS-1000 moisture balance system (Surface Measurement Systems, UK). A sample (15-30 mg) was initially dried at 25° C. until a constant weight was achieved. The relative humidity was increased from 0 to 90% (with 5% relative humidity increments). Each successive increment was initiated when the change in weight at a given relative humidity was smaller than 5 μg over 5 minutes. Once the sample was exposed to 90% relative humidity, the process was reversed from 90% to 0 relative humidity (with 10% relative humidity increments).

[3] = Modulated differential scanning calorimetry (MDSC) study; conditions: MDSC heating, 2° C./minute
Protocol: MDSC studies were performed using a TA 2920 instrument (TA instruments, New Castle, Del.). A sample (5-10 mg) of the powder was filled into an aluminum DSC pan in a glove box, with the relative humidity maintained under 1%, and hermetically sealed using a sample encapsulation press. Helium was used as a purge at 30 cm^3/minute; the Refrigerated Control System (RCS) used helium at a flow rate of 110 cm^3/minute. The MDSC protocol was as follows: equilibrate at 0° C.; modulate ±0.318° C. every 60 seconds; ramp 2° C./minute to 200° C.; isothermal for 5 minutes; ramp 10° C./minute to 0° C.; isothermal for 5 minutes; modul 0.318° C. every 60 seconds; ramp 2° C./minute to 280° C.

[4] = Solubility in REDISPERSE organic solvent (noted in the PLM study)
Protocol: PLM and hot stage microscopy studies were done using a Nikon (Melville, N.Y.) Optihot-2 polarizing microscope. A Mettler (Columbus, Ohio) Toledo FP82HT hot stage attachment provided the variable temperature analyses from room temperature to 250° C. at 10° C. per minute. Photomicrographs were taken using a Nikon 35 mm attachment using either a 20× or 40× objective. Microscope slides and coverslips were cleaned with methanol prior to use.
Birefringence persisted after quench cooling from […]

CN(Cc1cnc2nc(N)nc(N)c2n1)c1ccc(C(=O)N[C@@H](CCC(=O)O)C(=O)O)cc1 [methotrexate]
Moisture content [1]: 7.1% | Hygroscopicity compared to crystalline material [2]: hygroscopic than the crystalline material | Relative humidity at which signs of moisture-induced crystallization are observed in DVS time profile [2]: 70 % relative humidity | Hysteresis upon desorption of water ([2]; 90% to 0 relative humidity): no hysteresis | Absorption of water, % of its weight ([2]; at 90% relative humidity): about 13.5% | Storage relative humidity for long term stability of liquid crystalline phase ([2]; suggested by DVS data): below 70 % relative humidity | Decomposition temperature [3]: 246-250 °C | Solubility in REDISPERSE brand of solvent [4]: insoluble
